Measurements from article PMC7496096, “Functional Characterisation of ClpP Mutations Conferring Resistance to Acyldepsipeptide Antibiotics in Firmicutes” (Chembiochem, 2020).
Values after ≈ are worked out from the molar mass of the structure shown.

What was measured:
S. aureus ATCC 29213 [1] = experiment: Spontaneous resistance rate on ADEP-containing agar; assay type: cell-based, Staphylococcus aureus; conditions: 5×10^6 cells plated, colonies counted after 24 h at 37 °C
Protocol: (§1) Screening for ADEP‐resistant mutants and determination of resistance rates: Single colonies of wild‐type strains grown on Mueller‐Hinton agar plates overnight were suspended in sterile saline and a final inoculum of 5×10^6 cells was spread on plates supplemented with different ADEP congeners at 4× and 10× the MIC. For B. subtilis strain 3xclpP, ADEP7‐containing Mueller‐Hinton agar plates were additionally supplemented with 1 mM IPTG. Resistant colonies were counted after 24 h at 37 °C and colonies were randomly chosen for MIC determinations and sequencing. Mutations in the clpP gene of the respective isolated mutants were analysed by amplifying the clpP gene (and upstream promoter region) by PCR and sequencing of the resulting PCR amplicons (LGC genomics). Sequencing data were analysed by using SnapGene software (GSL Biotech).

S. aureus 133 [2] = experiment: as above; assay type: cell-based, Staphylococcus aureus; conditions: ADEP exposure 4× MIC in Mueller-Hinton agar; 5×10^6 cells plated, colonies counted after 24 h at 37 °C
Protocol: as §1

B. subtilis 168 = experiment: microbe, parasite or virus in culture; assay type: cell-based, Bacillus subtilis; conditions: broth microdilution, Mueller-Hinton broth (without cation adjustment), CLSI, inoculum 5×10^4 CFU mL^−1; wild type
Protocol: (§2) Determination of antibacterial activity: ADEP1 was purified from the culture supernatant of S. hawaiiensis NRRL 15010 as described.4 ADEPs 2, 4, 7, 9 were custom synthesised by EMC Microcollections, Tübingen, or provided by AiCuris, Wuppertal, Germany. The minimal inhibitory concentration (MIC) was determined by broth microdilution in Mueller‐Hinton broth (without cation adjustment) according to the guidelines of the Clinical Laboratory Standards Institute (CLSI).69 The inoculum was set to 5×10^4 CFU mL^−1 to allow some distance to the determined spontaneous resistance frequencies. […] All other ADEPs were used from DMSO stock solutions kept at −20 °C.

S. aureus ATCC 29213 [3] = experiment: microbe, parasite or virus in culture; assay type: cell-based, Staphylococcus aureus; conditions: broth microdilution, Mueller-Hinton broth (without cation adjustment), CLSI, inoculum 5×10^4 CFU mL^−1; wild type
Protocol: as §2

S. aureus 133 [4] = experiment: microbe, parasite or virus in culture; assay type: cell-based, Staphylococcus aureus; conditions: broth microdilution, Mueller-Hinton broth (without cation adjustment), CLSI, inoculum 5×10^4 CFU mL^−1; wild type
Protocol: as §2

S. pneumoniae G9A = assay type: cell-based, Streptococcus pneumoniae; conditions: broth microdilution, Mueller-Hinton broth; wildtype
Protocol: as §2

E. faecium RC2 = assay type: cell-based, Enterococcus faecium; conditions: resistant clone of E. faecium L4001; insertion of IS30 family transposase between promotor and start codon, no expression
Protocol: as §2, §1

E. faecium RC1 = assay type: cell-based, Enterococcus faecium; conditions: resistant clone of E. faecium L4001; ClpP I29→T, ADEP binding site
Protocol: as §2, §1

E. faecium RC3 = assay type: cell-based, Enterococcus faecium; conditions: resistant clone of E. faecium L4001; ClpP G127→A (equatorial interface)
Protocol: as §2, §1

S. aureus RC10 = assay type: cell-based, Staphylococcus aureus; conditions: resistant clone of S. aureus ATCC 29213; ClpP I165→M (equatorial interface; α6)
Protocol: as §2, §1

S. aureus RC6 = assay type: cell-based, Staphylococcus aureus; conditions: resistant clone of S. aureus 133; ClpP Q35→STOP, premature stop
Protocol: as §2, §1

S. aureus RC1 = assay type: cell-based, Staphylococcus aureus; conditions: resistant clone of S. aureus 133; ClpP Q132→H, oligomerisation sensor
Protocol: as §2, §1

S. aureus RC12 = assay type: cell-based, Staphylococcus aureus; conditions: resistant clone of S. aureus ATCC 29213; ClpP E9→V, N-terminal gate
Protocol: as §2, §1

S. aureus RC5 = assay type: cell-based, Staphylococcus aureus; conditions: resistant clone of S. aureus 133; ClpP A133→V, ring-ring interaction
Protocol: as §2, §1

S. aureus RC2 = assay type: cell-based, Staphylococcus aureus; conditions: resistant clone of S. aureus 133; ClpP M190→T, ADEP binding site
Protocol: as §2, §1

S. aureus RC11 = assay type: cell-based, Staphylococcus aureus; conditions: resistant clone of S. aureus ATCC 29213; ClpP Q82→P (ClpP core; α3)
Protocol: as §2, §1

S. aureus RC4 = assay type: cell-based, Staphylococcus aureus; conditions: resistant clone of S. aureus 133; ClpP N173→D, ring-ring interaction
Protocol: as §2, §1

S. aureus RC13 = assay type: cell-based, Staphylococcus aureus; conditions: resistant clone of S. aureus ATCC 29213; ClpP G68→V (ClpP core)
Protocol: as §2, §1

S. aureus RC16 = assay type: cell-based, Staphylococcus aureus; conditions: resistant clone of S. aureus ATCC 29213; ClpP A114→T (ClpP core; β5)
Protocol: as §2, §1

S. aureus RC3 = assay type: cell-based, Staphylococcus aureus; conditions: resistant clone of S. aureus 133; ClpP A133→T, ring-ring interaction
Protocol: as §2, §1

S. aureus RC17 = assay type: cell-based, Staphylococcus aureus; conditions: resistant clone of S. aureus ATCC 29213; ClpP A133→V, ring-ring interaction
Protocol: as §2, §1

S. aureus RC18 = assay type: cell-based, Staphylococcus aureus; conditions: resistant clone of S. aureus ATCC 29213; ClpP R23→P, N-terminal gate
Protocol: as §2, §1

S. aureus RC8 = assay type: cell-based, Staphylococcus aureus; conditions: resistant clone of S. aureus ATCC 29213; Δ107 nt, C-terminal truncation
Protocol: as §2, §1

S. aureus RC9 = assay type: cell-based, Staphylococcus aureus; conditions: resistant clone of S. aureus ATCC 29213; ClpP H123→R, active site
Protocol: as §2, §1

E. faecium L4001 = assay type: cell-based, Enterococcus faecium; conditions: broth microdilution, Mueller-Hinton broth; wildtype
Protocol: as §2

E. faecalis ATCC 29212 = experiment: microbe, parasite or virus in culture; assay type: cell-based, Enterococcus faecalis; conditions: broth microdilution, Mueller-Hinton broth (without cation adjustment), CLSI, inoculum 5×10^4 CFU mL^−1; wild type
Protocol: as §2

Q: What does the source list for C[C@@H]1C[C@H]2C(=O)OC[C@H](NC(=O)[C@H](Cc3cc(F)cc(F)c3)NC(=O)CCC3CCCCC3)C(=O)N3CCC[C@H]3C(=O)N3CCCC[C@H]3C(=O)N[C@@H](C)C(=O)N2C1 [ADEP2]?
A: Resistance rate (S. aureus ATCC 29213 [1]; ADEP exposure 4× MIC in Mueller-Hinton agar): 7×10^−7; Resistance rate (S. aureus ATCC 29213 [1]; ADEP exposure 10× MIC in Mueller-Hinton agar): 7×10^−7; Resistance rate (S. aureus 133 [2]): 3×10^−6; MIC (B. subtilis 168): ≤0.031 µg/mL; MIC (S. aureus ATCC 29213 [3]): 0.125 µg/mL (≈ 0.156 µM); MIC (S. aureus 133 [4]): 0.031 µg/mL (≈ 0.0388 µM); MIC (S. pneumoniae G9A): ≤0.063 µg/mL; MIC (E. faecium RC2): >16 µg/mL; MIC (E. faecium RC1): 0.125 µg/mL (≈ 0.156 µM); MIC (E. faecium RC3): 4 µg/mL (≈ 5.01 µM); MIC (S. aureus RC10): >64 µg/mL; MIC (S. aureus RC6): >64 µg/mL; MIC (S. aureus RC1): 8 µg/mL (≈ 10 µM); MIC (S. aureus RC12): >64 µg/mL; MIC (S. aureus RC5): >64 µg/mL; MIC (S. aureus RC2): 2 µg/mL (≈ 2.5 µM); MIC (S. aureus RC11): >64 µg/mL; MIC (S. aureus RC4): >64 µg/mL; MIC (S. aureus RC13): >64 µg/mL; MIC (S. aureus RC16): >64 µg/mL; MIC (S. aureus RC3): >64 µg/mL; MIC (S. aureus RC17): >64 µg/mL; MIC (S. aureus RC18): >64 µg/mL; MIC (S. aureus RC8): >64 µg/mL; MIC (S. aureus RC9): >64 µg/mL; MIC (E. faecium L4001): ≤0.063 µg/mL; MIC (E. faecalis ATCC 29212): ≤0.031 µg/mL
